From US20220401514A1, “ANTIMICROBIAL, BACTERIOPHAGE-DERIVED POLYPEPTIDES AND THEIR USE AGAINST GRAM-NEGATIVE AND ACID-FAST BACTERIA” (CONTRAFECT CORPORATION, priority 2019, published 2022) come the findings set out here.

≈ marks a conversion by molar mass, not a printed value. Read-outs that look alike come from different tables or passages of the source.

One test deals with Klebsiella pneumoniae. The test is described as follows: microbe, parasite or virus in culture. The settings on record: Klebsiella pneumoniae, read-out: MIC (in brackets beside MBEC). Format: cell-based.
The next test has as its system Enterobacter cloacae. The test is described as follows: microbe, parasite or virus in culture. The following applies: Enterobacter cloacae, CCUG63317; E. cloacae (CCUG 63317); control agents of Table 8; read-out: MIC (in brackets beside MBEC). Format: cell-based. The gist of the method:
(§1)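 CAA + human serum as test medium; MIC read as lowest peptide concentration inhibiting growth.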

A further test deals with Escherichia coli. In words: microbe, parasite or virus in culture. In kind it is cell-based. The settings on record: Escherichia coli, control agents of Table 8, read-out: MIC (in brackets beside MBEC). An outline of the steps: as §1
The test system of test [1] is M. kansasii Hauduroy ATCC 12478. In words: 45 hr MIC against M. kansasii (NTM), Mueller Hinton broth. In kind it is cell-based, Mycobacterium kansasii. The following applies: Mycobacterium kansasii, ATCC12478, 45 h, read-out: 45 hr MIC.
For another test, the system named is M. intracellulare. The test is described as follows: 45 hr MIC against M. intracellulare (NTM). In kind it is cell-based, Mycobacterium intracellulare. The following applies: Mycobacterium intracellulare, ATCC13950, 45 h, read-out: 45 hr MIC; M. intracellulare (Cuttino and McCabe) Runyon ATCC 13950.
In the next test the test system is M. fortuitum. The test is described as follows: 45 hr MIC against M. fortuitum (NTM). In kind it is cell-based, Mycobacterium fortuitum. The settings on record: Mycolicibacterium fortuitum, ATCC6841, 45 h, read-out: 45 hr MIC; M. fortuitum subsp. Fortuitum da Costa Cruz. ATCC 6841.
Another test deals with M. smegmatis. In words: 45 hr MIC against M. smegmatis (NTM), Mueller Hinton broth. In kind it is cell-based, Mycobacterium smegmatis. The settings on record: Mycolicibacterium smegmatis, MC^2155, 45 h, read-out: 45 hr MIC; M. smegmatis MC^2 155, Run #2.
The next test concerns M. scrofulaceum. The test is described as follows: 45 hr MIC against M. scrofulaceum (NTM). In kind it is cell-based, Mycobacterium scrofulaceum. The following applies: Mycobacterium scrofulaceum, ATCC19981, 45 h, read-out: 45 hr MIC; M. scrofulaceum Prissick and Masson ATCC 19981.
The subject of the next test is Pseudomonas aeruginosa. In words: microbe, parasite or virus in culture. In kind it is cell-based. The settings on record: Pseudomonas aeruginosa, ATCC27853; P. aeruginosa (ATCC 27853); control agents of Table 8; read-out: MIC (in brackets beside MBEC).
The test system of a further test is Acinetobacter baumannii. In words: microbe, parasite or virus in culture. The following applies: Acinetobacter baumannii, ATCCBAA747; A. baumanni (ATCC BAA-747); control agents of Table 8; read-out: MIC (in brackets beside MBEC). In kind it is cell-based.

As for `NC[C@H]1O[C@H](O[C@H]2[C@H](O)[C@@H](O[C@H]3O[C@H](CO)[C@@H](O)[C@H](N)[C@H]3O)[C@H](N)C[C@@H]2N)[C@H](N)C[C@@H]1O` [tobramycin, reference compound], the MIC was less than 0.5 µg/mL in the test on Klebsiella pneumoniae (ATCC700603, K. pneumoniae (ATCC 700603), control agents of Table 8); less than 0.5 µg/mL with Klebsiella pneumoniae; less than 0.5 µg/mL with Enterobacter cloacae; less than 0.5 µg/mL in the test on Escherichia coli (ATCC25922, E. coli (ATCC 25922)); less than 0.5 µg/mL with Escherichia coli (ATCC35329, E. coli (ATCC 35329)); less than 0.5 µg/mL with Escherichia coli (E. coli (EC2)). Moreover, the MIC was 16 µg/mL (≈ 34.2 µM) in test [1]; 0.25 µg/mL (≈ 0.535 µM) in the test with M. intracellulare; 4 µg/mL (≈ 8.56 µM) in the test on M. fortuitum; 0.125 µg/mL (≈ 0.267 µM) in the test with M. smegmatis; 0.25 µg/mL (≈ 0.535 µM) in the test on M. scrofulaceum; less than 0.5 µg/mL in the test on Pseudomonas aeruginosa. Further, the MIC in the test on Acinetobacter baumannii is less than 0.5 µg/mL.
